According to patent publication US8642544B2, “N-terminus conformationally constrained GLP-1 receptor agonist compounds” (Amylin Pharmaceuticals, LLC, priority 2009, dated 2014):

Tests used:
NIH/Swiss female mice = test: in vivo basal glucose lowering assay; details: Table 1, time in hours, subcutaneous injection, tail blood glucose at t=2 and 4 hours post dose
Experimental: Some compounds shown in Table 1 below were analyzed in an in vivo basal glucose lowering assay using the following procedure: A subcutaneous injection of either 200 μl phosphate-buffered saline (PBS) vehicle or test article was given immediately following baseline glucose (t=0) to NIH/Swiss female mice. Tail blood glucose samples were measured at t=2 and 4 hours post dose using a OneTouch® Ultra® (LifeScan, Inc., a Johnson & Johnson Company, Milpitas, Calif.). Body weight was measured daily. Significant test sample effects were identified by ANOVA (p<0.05), followed by Dunnett's post test using GraphPad Prism version 4.00 for Windows (GraphPad Software, San Diego Calif.).

GLP-1 receptor = target: T1, GLP-1 receptor (Rattus norvegicus, UniProt P32301); test: in vitro functional assay at the GLP-1 receptor (cyclase, cAMP production in RIN m5f cell membranes); type: biochemical; details: Cyclase GLP-1 Receptor EC50 (nM)
T1 construct: 96-well assay plate containing RIN m5f cell membranes in an ATP/GTP mixture; endogenous in cells; host or cells: RIN m5f cell membranes
T1 sequence (P32301 22-463): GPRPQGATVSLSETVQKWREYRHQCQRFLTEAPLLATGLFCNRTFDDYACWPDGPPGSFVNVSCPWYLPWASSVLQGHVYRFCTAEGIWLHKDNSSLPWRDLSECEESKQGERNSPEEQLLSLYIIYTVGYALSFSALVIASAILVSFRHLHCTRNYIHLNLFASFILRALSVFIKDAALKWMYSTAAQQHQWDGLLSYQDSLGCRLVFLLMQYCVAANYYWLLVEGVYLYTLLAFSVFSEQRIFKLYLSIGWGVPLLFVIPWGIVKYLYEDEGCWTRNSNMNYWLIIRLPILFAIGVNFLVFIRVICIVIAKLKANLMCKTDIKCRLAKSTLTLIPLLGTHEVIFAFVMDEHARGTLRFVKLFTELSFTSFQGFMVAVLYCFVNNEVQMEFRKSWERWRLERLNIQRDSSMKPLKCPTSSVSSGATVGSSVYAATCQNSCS
Experimental: The compounds shown in Table 1 below were analyzed in an in vitro functional assay at the GLP-1 receptor. The assay was conducted as follows: Membrane fractions were prepared from confluent cultures of RIN m5f cells. Compounds were serially diluted with an assay buffer, and then added to a 96-well assay plate containing RIN m5f cell membranes in an ATP/GTP mixture. Cyclase activities were determined by measuring the production of cAMP induced through GLP-1 receptor activation. Quantification of cAMP production was achieved through a competitive chemiluminescence assay with a biotinylated-cAMP probe using Perkin Elmer Fusion™-Alpha Microplate Analyzer (AlphaScreen™ technology). The compound EC50 values were obtained through fitting the concentration-response curves to a four-parameter logistic equation within GraphPad PRISM® software.

[1] = Table 1, RIN m5f cell membranes, cAMP production (AlphaScreen)

Structure (SMILES) | In Vivo Glucose-Lowering Assay (NIH/Swiss female mice) | EC50 (GLP-1 receptor; [1]) [nM] | also measured
CC[C@H](C)[C@H](NC(=O)[C@H](Cc1ccccc1)NC(=O)[C@H](CC(C)C)NC(=O)[C@H](CCCNC(=N)N)NC(=O)[C@@H](NC(=O)[C@H](C)NC(=O)[C@H](CCC(=O)O)NC(=O)[C@H](CCC(=O)O)NC(=O)[C@H](CCC(=O)O)NC(=O)[C@H](CC(C)C)NC(=O)[C@H](CCC(N)=O)NC(=O)[C@H](CCCCN)NC(=O)[C@H](CO)NC(=O)[C@H](CC(C)C)NC(=O)[C@H](CC(=O)O)NC(=O)[C@H](CO)NC(=O)[C@@H](NC(=O)[C@H](Cc1ccccc1)NC(=O)[C@@H](NC(=O)CNC(=O)[C@@H]1CCCN1C(=O)CNC(=O)[C@@H](N)Cc1c[nH]cn1)[C@@H](C)O)[C@@H](C)O)C(C)C)C(=O)N[C@@H](CCC(=O)O)C(=O)N[C@@H](Cc1c[nH]c2ccccc12)C(=O)N[C@@H](CC(C)C)C(=O)N[C@@H](CCCCN)C(=O)N[C@@H](CCC(N)=O)C(=O)NCC(=O)NCC(=O)N1CCC[C@H]1C(=O)N[C@@H](CO)C(=O)N[C@@H](CCCCN)C(=O)N[C@@H](CCC(=O)O)C(=O)N[C@H](C(=O)N[C@H](C(=O)N[C@@H](CO)C(N)=O)[C@@H](C)CC)[C@@H](C)CC [2B] | more than 4 hours | – | –
CC[C@H](C)[C@H](NC(=O)[C@H](Cc1ccccc1)NC(=O)[C@H](CC(C)C)NC(=O)[C@H](CCCNC(=N)N)NC(=O)[C@@H](NC(=O)[C@H](C)NC(=O)[C@H](CCC(=O)O)NC(=O)[C@H](CCC(=O)O)NC(=O)[C@H](CCC(=O)O)NC(=O)[C@H](CC(C)C)NC(=O)[C@H](CCC(N)=O)NC(=O)[C@H](CCCCN)NC(=O)[C@H](CO)NC(=O)[C@H](CC(C)C)NC(=O)[C@H](CC(=O)O)NC(=O)[C@H](CO)NC(=O)[C@@H](NC(=O)[C@H](Cc1ccccc1)NC(=O)[C@@H](NC(=O)CNC(=O)[C@@H]1CCCCN1C(=O)CNC(=O)[C@@H](N)Cc1c[nH]cn1)[C@@H](C)O)[C@@H](C)O)C(C)C)C(=O)N[C@@H](CCC(=O)O)C(=O)N[C@@H](Cc1c[nH]c2ccccc12)C(=O)N[C@@H](CC(C)C)C(=O)N[C@@H](CCCCN)C(=O)N[C@@H](CCC(N)=O)C(=O)NCC(=O)NCC(=O)N1CCC[C@H]1C(=O)N[C@@H](CO)C(=O)N[C@@H](CCCCN)C(=O)N[C@@H](CCC(=O)O)C(=O)N[C@H](C(=O)N[C@H](C(=O)N[C@@H](CO)C(N)=O)[C@@H](C)CC)[C@@H](C)CC [2F] | more than 4 hours | – | –
CC[C@H](C)[C@H](NC(=O)[C@H](Cc1ccccc1)NC(=O)[C@H](CC(C)C)NC(=O)[C@H](CCCNC(=N)N)NC(=O)[C@@H](NC(=O)[C@H](C)NC(=O)[C@H](CCC(=O)O)NC(=O)[C@H](CCC(=O)O)NC(=O)[C@H](CCC(=O)O)NC(=O)[C@H](CC(C)C)NC(=O)[C@H](CCC(N)=O)NC(=O)[C@H](CCCCN)NC(=O)[C@H](CO)NC(=O)[C@H](CC(C)C)NC(=O)[C@H](CC(=O)O)NC(=O)[C@H](CO)NC(=O)[C@@H](NC(=O)[C@H](Cc1ccccc1)NC(=O)[C@@H](NC(=O)CNC(=O)[C@@H]1C[C@@H](O)CN1C(=O)CNC(=O)[C@@H](N)Cc1c[nH]cn1)[C@@H](C)O)[C@@H](C)O)C(C)C)C(=O)N[C@@H](CCC(=O)O)C(=O)N[C@@H](Cc1c[nH]c2ccccc12)C(=O)N[C@@H](CC(C)C)C(=O)N[C@@H](CCCCN)C(=O)N[C@@H](CCC(N)=O)C(=O)NCC(=O)NCC(=O)N1CCC[C@H]1C(=O)N[C@@H](CO)C(=O)N[C@@H](CCCCN)C(=O)N[C@@H](CCC(=O)O)C(=O)N[C@H](C(=O)N[C@H](C(=O)N[C@@H](CO)C(N)=O)[C@@H](C)CC)[C@@H](C)CC [2I] | more than 4 hours | – | –
CC[C@H](C)[C@H](NC(=O)[C@H](Cc1ccccc1)NC(=O)[C@H](CC(C)C)NC(=O)[C@H](CCCNC(=N)N)NC(=O)[C@@H](NC(=O)[C@H](C)NC(=O)[C@H](CCC(=O)O)NC(=O)[C@H](CCC(=O)O)NC(=O)[C@H](CCC(=O)O)NC(=O)[C@H](CC(C)C)NC(=O)[C@H](CCC(N)=O)NC(=O)[C@H](CCCCN)NC(=O)[C@H](CO)NC(=O)[C@H](CC(C)C)NC(=O)[C@H](CC(=O)O)NC(=O)[C@H](CO)NC(=O)[C@@H](NC(=O)[C@H](Cc1ccccc1)NC(=O)[C@@H](NC(=O)[C@H]1CSSC[C@H](NC(=O)[C@@H](N)Cc2c[nH]cn2)C(=O)N2CCC[C@H]2C(=O)N1)[C@@H](C)O)[C@@H](C)O)C(C)C)C(=O)N[C@@H](CCC(=O)O)C(=O)N[C@@H](Cc1ccccc1)C(=O)N[C@@H](CC(C)C)C(=O)N[C@@H](CCCCN)C(=O)N[C@@H](CC(N)=O)C(N)=O [8D] | – | 106 | –
CC[C@H](C)[C@H](NC(=O)[C@H](Cc1ccccc1)NC(=O)[C@H](CC(C)C)NC(=O)[C@H](CCCNC(=N)N)NC(=O)[C@@H](NC(=O)[C@H](C)NC(=O)[C@H](CCC(=O)O)NC(=O)[C@H](CCC(=O)O)NC(=O)[C@H](CCC(=O)O)NC(=O)[C@H](CC(C)C)NC(=O)[C@H](CCC(N)=O)NC(=O)[C@H](CCCCN)NC(=O)[C@H](CO)NC(=O)[C@H](CC(C)C)NC(=O)[C@H](CC(=O)O)NC(=O)[C@H](CO)NC(=O)[C@@H](NC(=O)[C@H](Cc1ccccc1)NC(=O)[C@@H](NC(=O)CN1CC[C@@H](C(=O)O)[C@H](NC(=O)[C@H](C)NC(=O)[C@@H](N)Cc2c[nH]cn2)C1=O)[C@@H](C)O)[C@@H](C)O)C(C)C)C(=O)N[C@@H](CCC(=O)O)C(=O)N[C@@H](Cc1c[nH]c2ccccc12)C(=O)N[C@@H](CC(C)C)C(=O)N[C@@H](CCCCN)C(=O)N[C@@H](CCC(N)=O)C(=O)NCC(=O)NCC(=O)N1CCC[C@H]1C(=O)N[C@@H](CO)C(=O)N[C@@H](CCCCN)C(=O)N[C@@H](CCC(=O)O)C(=O)N[C@H](C(=O)N[C@H](C(=O)N[C@@H](CO)C(=O)O)[C@@H](C)CC)[C@@H](C)CC [16B] | – | 0.18 | –
CC[C@H](C)[C@H](NC(=O)[C@H](Cc1ccccc1)NC(=O)[C@H](CC(C)C)NC(=O)[C@H](CCCNC(=N)N)NC(=O)[C@@H](NC(=O)[C@H](C)NC(=O)[C@H](CCC(=O)O)NC(=O)[C@H](CCC(=O)O)NC(=O)[C@H](CCC(=O)O)NC(=O)[C@H](CCSC)NC(=O)[C@H](CCC(N)=O)NC(=O)[C@H](CCCCN)NC(=O)[C@H](CO)NC(=O)[C@H](CC(C)C)NC(=O)[C@H](CC(=O)O)NC(=O)[C@H](CO)NC(=O)[C@@H](NC(=O)[C@H](Cc1ccccc1)NC(=O)[C@@H](NC(=O)CNC(=O)[C@@H]1CCCN1C(=O)[C@H](C)NC(=O)CCc1c[nH]cn1)[C@@H](C)O)[C@@H](C)O)C(C)C)C(=O)N[C@@H](CCC(=O)O)C(=O)N[C@@H](Cc1c[nH]c2ccccc12)C(=O)N[C@@H](CC(C)C)C(=O)N[C@@H](CCCCN)C(=O)N[C@@H](CC(N)=O)C(=O)N[C@@H](CCCCNC(=O)CCCC[C@@H]1SC[C@@H]2NC(=O)N[C@@H]21)C(N)=O [Compound 24D] | – | – | EC50 (GLP-1 receptor; Table 3, methods of Example 16): 0.77 nM
CC[C@H](C)[C@H](NC(=O)[C@H](Cc1ccccc1)NC(=O)[C@H](CC(C)C)NC(=O)[C@H](CCCNC(=N)N)NC(=O)[C@@H](NC(=O)[C@H](C)NC(=O)[C@H](CCC(=O)O)NC(=O)[C@H](CCC(=O)O)NC(=O)[C@H](CCC(=O)O)NC(=O)[C@H](CC(C)C)NC(=O)[C@H](CCC(N)=O)NC(=O)[C@H](CCCCN)NC(=O)[C@H](CO)NC(=O)[C@H](CC(C)C)NC(=O)[C@H](CC(=O)O)NC(=O)[C@H](CO)NC(=O)[C@@H](NC(=O)[C@H](Cc1ccccc1)NC(=O)[C@@H](NC(=O)CNC(=O)[C@@H]1CCCN1C(=O)[C@H]1CSC([C@@H](N)Cc2c[nH]cn2)N1)[C@@H](C)O)[C@@H](C)O)C(C)C)C(=O)N[C@@H](CCC(=O)O)C(=O)N[C@@H](Cc1ccccc1)C(=O)N[C@@H](CC(C)C)C(=O)N[C@@H](CCCCN)C(=O)N[C@@H](CC(N)=O)C(N)=O (stereo partly shown) [Compound in Figure 17B] | – | 668 | –
